Results reported in patent publication US11639350B2, “Heteroaryldihydropyrimidine derivatives and methods of treating hepatitis B infections” (Janssen Pharmaceutica NV, priority 2018, dated 2023).
Where two headings read alike, the source gives them in different places.

Legend:
[1] = test system: HBV; test: HBV inhibitory activity: HBV DNA in the culture medium of HepG2.2.15 cells by q-PCR; format: cell-based; conditions: HepG2.2.15 cells, 6 days of compound treatment, HBV DNA in culture medium by q-PCR, highest concentration 10 μM, read-out: EC50
Method in brief: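 HepG2.2.15 cells in 2% FBS medium, 40,000 per well, treated 6 days with compound (medium refreshed once), eight 3-fold dilutions from 10 μM top. HBV DNA extracted from culture medium and quantified by q-PCR; EC50 averaged over repeats. Cytotoxicity run in parallel at 5,000 cells per well, top 100 μM, giving CC50.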

[2] = Cytotoxicity determination in HepG2.2.15 cells (CCK-8); format: cell-based; conditions: human, 6 days of compound treatment, CCK-8, highest concentration 100 μM
Method in brief: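 HepG2.2.15 cells seeded at 5,000 cells/well in 2% FBS medium, incubated overnight at 37° C., then treated 6 days with compounds (8 points, 3-fold dilutions, top 100 μM), medium refreshed once midway. CCK-8 added for 2.5 h; A450 read against 630 nm reference; CC50 calculated, averaged over repeats.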

[3] = Hepatitis B virus, HepG2.2.15, 144 h

Compound | EC50 [1, 3] | CC50 at 6 days [2] | EC50 [1]
COCCS(=O)(=O)N[C@H]1CC[C@H](C2=C(C(=O)OC)C(c3ccc(F)cc3Cl)N=C(c3nccs3)N2)CC1 (single isomer, unassigned) [Compound 182A, (trans)Methyl 4-(2-chloro-4-fluorophenyl)-6-(4-(2-methoxyethylsulfonamido)cyclohexyl)-2-(thiazol-2-yl)-1,4-dihydropyrimidine-5-carboxylate] | 93 nM | 33.6 µM | 
COC(=O)C1=C(C2CCCN(S(C)(=O)=O)CC2)NC(c2nccs2)=NC1c1ccc(F)cc1Cl (single isomer, unassigned) [Compound 383A, Methyl 4-(2-chloro-4-fluorophenyl)-6-(1-(methylsulfonyl)azepan-4-yl)-2-(thiazol-2-yl)-1,4-dihydropyrimidine-5-carboxylate] | 87 nM | 32.9 µM | 
CNS(=O)(=O)[C@H]1CC[C@H](C2=C(C(=O)OC)C(c3cccc(F)c3Cl)N=C(c3nccs3)N2)CC1 (single isomer, unassigned) [Compound 259E, (trans)-methyl 4-(2-chloro-3-fluorophenyl)-6-(4-(N-methylsulfamoyl)cyclohexyl)-2-(thiazol-2-yl)-1,4-dihydropyrimidine-5-carboxylate] | 28 nM | 22.7 µM | 
COC(=O)C1=C(C2CCN(S(=O)(=O)[C@H]3C[C@H](C(=O)O)C3)CC2)NC(c2nccs2)=NC1c1ccc(F)c(F)c1Cl (single isomer, unassigned) [Compound 232B, (trans)-3-((4-(6-(2-Chloro-3,4-difluorophenyl)-5-(methoxycarbonyl)-2-(thiazol-2-yl)-3,6-dihydropyrimidin-4-yl)piperidin-1-yl)sulfonyl)cyclobutanecarboxylic Acid] | 57 nM | 60 µM | 
COCCOCCOCCS(=O)(=O)NC12CC(C3=C(C(=O)OC)C(c4ccc(F)cc4Cl)N=C(c4nccs4)N3)(C1)C2 (stereo not shown) [Compound 440b, Methyl 4-(2-chloro-4-fluorophenyl)-6-(3-(2-(2-(2-methoxyethoxy)ethoxy)ethylsulfonamido)bicyclo[1.1.1]pentan-1-yl)-2-(thiazol-2-yl)-1,4-dihydropyrimidine-5-carboxylate] | 13 nM | 82.9 µM | 
COC(=O)C1=C(C2CCN(S(=O)(=O)CCC(=O)O)CC2)NC(c2nccs2)=NC1c1ccc(F)c(F)c1Cl (stereo not shown) [Compound 230, 3-((4-(6-(2-Chloro-3,4-difluorophenyl)-5-(methoxycarbonyl)-2-(thiazol-2-yl)-3,6-dihydropyrimidin-4-yl)piperidin-1-yl)sulfonyl)propanoic Acid] | 146 nM | > 100 µM | 
COC(=O)C1=C(C2CCN(S(=O)(=O)C3CC(C)(C(=O)O)C3)CC2)NC(c2nccs2)=NC1c1ccc(F)cc1Cl (stereo not drawn) [Compound 141, (trans)-3-((4-(6-(2-chloro-4-fluorophenyl)-5-(methoxycarbonyl)-2-(thiazol-2-yl)-3,6-dihydropyrimidin-4-yl)piperidin-1-yl)sulfonyl)-1-methylcyclobutane-1-carboxylic Acid] | 51 nM | 30.7 µM | 
COC(=O)C1=C([C@H]2C[C@H](NS(C)(=O)=O)C2)NC(c2nccs2)=NC1c1ccc(F)cc1Cl (single isomer, unassigned) [Compound 206B, (trans)-Methyl 4-(2-chloro-4-fluorophenyl)-6-(3-(methylsulfonamido)cyclobutyl)-2-(thiazol-2-yl)-1,4-dihydropyrimidine-5-carboxylate] | 108 nM | 26.1 µM | 
CCOC(=O)C1=C([C@H]2CCC[C@H](C(=O)O)CC2)NC(c2nccs2)=NC1c1ccc(F)c(F)c1Cl (single isomer, unassigned) [Compound 302A, (trans)-4-(−6-(2-Chloro-3,4-difluorophenyl)-5-(ethoxycarbonyl)-2-(thiazol-2-yl)-3,6-dihydropyrimidin-4-yl)cycloheptanecarboxylic Acid] | 24 nM | 15.2 µM | 
COC(=O)C1=C(C2CCN(S(=O)(=O)C[C@H]3CC[C@H](C(=O)O)CC3)CC2)NC(c2nccs2)=NC1c1cccc(F)c1Cl (stereo partly drawn) [Compound 454, (trans)-4-(((4-(6-(2-Chloro-3-fluorophenyl)-5-(methoxycarbonyl)-2-(thiazol-2-yl)-3,6-dihydropyrimidin-4-yl)piperidin-1-yl)sulfonyl)methyl)-cyclohexanecarboxylic Acid] | 37 nM | 12 µM | 
COCCOCCOCCOCCS(=O)(=O)N1CCC(C2=C(C(=O)OC)C(c3ccc(F)cc3Cl)N=C(c3nccs3)N2)CC1 (stereo not shown) [Compound 460, Methyl 6-(1-(2,5,8,11-tetraoxatridecan-13-ylsulfonyl)piperidin-4-yl)-4-(2-chloro-4-fluorophenyl)-2-(thiazol-2-yl)-1,4-dihydropyrimidine-5-carboxylate] | 8 nM | 19.9 µM | 
COC(=O)C1=C(C2CCCCO2)NC(c2nccs2)=NC1c1ccc(F)cc1Cl (single isomer, unassigned) [Compound 49C, Methyl 4-(2-chloro-4-fluorophenyl)-6-(tetrahydro-2H-pyran-2-yl)-2-(thiazol-2-yl)-1,4-dihydropyrimidine-5-carboxylate] | 202 nM | 84.6 µM | 
COC(=O)C1=C([C@H]2CC[C@H](NS(N)(=O)=O)CC2)NC(c2nccs2)=NC1c1ccc(F)c(F)c1Cl (relative stereo) [Compound 238, (trans)-Methyl 4-(2-chloro-3,4-difluorophenyl)-6-(4-(sulfamoylamino)cyclohexyl)-2-(thiazol-2-yl)-1,4-dihydropyrimidine-5-carboxylate] | 53 nM | 13.4 µM | 
COC(=O)C1=C(C2CCC(C(=O)O)C2)NC(c2nccs2)=NC1c1ccc(F)cc1Cl (single isomer, unassigned) [Compound 72C, 3-(6-(2-Chloro-4-fluorophenyl)-5-(methoxycarbonyl)-2-(thiazol-2-yl)-3,6-dihydropyrimidin-4-yl)cyclopentanecarboxylic Acid] |  | 22.1 µM | 475 nM
COC(=O)C1=C(C2CCN(S(C)(=O)=O)CC2)NC(c2nccs2)=NC1c1ccc(F)cc1Br (single isomer, unassigned) [Compound 120A, Methyl 4-(2-bromo-4-fluorophenyl)-6-(1-(methylsulfonyl)-piperidin-4-yl)-2-(thiazol-2-yl)-1,4-dihydropyrimidine-5-carboxylate] |  | 31.7 µM | 350 nM
COC(=O)C1=C(C2CCN(S(=O)(=O)c3cnn(C[C@H](C)O)c3)CC2)NC(c2nccs2)=NC1c1ccc(F)cc1Cl (stereo partly drawn) [Compound 360D, methyl 4-(2-chloro-4-fluorophenyl)-6-(1-((1-((S)-2-hydroxypropyl)-1H-pyrazol-4-yl)sulfonyl)piperidin-4-yl)-2-(thiazol-2-yl)-1,4-dihydropyrimidine-5-carboxylate] | 105 nM | 20.4 µM | 
COC(=O)C1=C(C2CCN(S(=O)(=O)c3cn(C)cn3)CC2)NC(c2nccs2)=NC1c1ccc(F)cc1Cl (stereo not shown) [Compound 201A, Methyl 4-(2-chloro-4-fluorophenyl)-6-(1-((1-methyl-1H-imidazol-4-yl)sulfonyl)piperidin-4-yl)-2-(thiazol-2-yl)-1,4-dihydropyrimidine-5-carboxylate] | 53 nM | 15.7 µM | 
COC(=O)C1=C([C@H]2CC[C@H](N(CCCO)S(C)(=O)=O)CC2)NC(c2nccs2)=NC1c1ccc(F)cc1Cl (single isomer, unassigned) [Compound 431B, (trans)-Methyl 4-(2-chloro-4-fluorophenyl)-6-(4-(N-(3-hydroxypropyl)methylsulfonamido)cyclohexyl)-2-(thiazol-2-yl)-1,4-dihydropyrimidine-5-carboxylate] | 52 nM | 28.1 µM | 
COC(=O)C1=C(C2CCN(S(C)(=O)=O)CC2)NC(c2nccs2)=NC1c1cccc(F)c1Cl (stereo not shown) [Compound 112, Methyl 4-(2-chloro-3-fluorophenyl)-6-(1-(methylsulfonyl)-piperidin-4-yl)-2-(thiazol-2-yl)-1,4-dihydropyrimidine-5-carboxylate] | 293 nM | 43.2 µM | 
COC[C@H](O)CN([C@H]1CC[C@H](C2=C(C(=O)OC)C(c3ccc(F)c(F)c3Cl)N=C(c3nccs3)N2)CC1)S(C)(=O)=O (single isomer, unassigned) [Compound 245B] | 49 nM | 12.3 µM | 
COC(=O)C1=C([C@H]2CC[C@@H](N(CC(=O)O)S(C)(=O)=O)CC2)NC(c2nccs2)=NC1c1ccc(F)cc1Cl (relative stereo) [Compound 135, 2-(N-(cis-4-(6-(2-chloro-4-fluorophenyl)-5-(methoxycarbonyl)-2-(thiazol-2-yl)-3,6-dihydropyrimidin-4-yl)cyclohexyl)methylsulfonamido)acetic Acid] | 346 nM | 62.5 µM | 
COC(=O)C1=C(C2CC(C(=O)O)C2)NC(c2nccs2)=NC1c1ccc(F)cc1Cl (stereo not shown) [Compound 86, 6-(3-Carboxy-cyclobutyl)-4-(2-chloro-4-fluoro-phenyl)-2-thiazol-2-yl-1,4-dihydro-pyrimidine-5-carboxylic acid methyl ester] | 110 nM | 21.6 µM | 
COC(=O)C1=C([C@H]2CC[C@H](S(=O)(=O)N3CCCC3)CC2)NC(c2nccs2)=NC1c1ccc(F)c(F)c1Cl (single isomer, unassigned) [Compound 169A, (trans)-Methyl 4-(2-chloro-3,4-difluorophenyl)-6-(4-(pyrrolidin-1-ylsulfonyl)cyclohexyl)-2-(thiazol-2-yl)-1,4-dihydropyrimidine-5-carboxylate] | 56 nM | > 100 µM | 
